# Reference: US20090137652A1, “METHODS FOR NEUROPROTECTION” (priority 2005, published 2009)
# “And” between values parts separate entries of the source, which are not always exact repeats. Equal entries are not always repeated. Marks after values point to notes of the source that are not given here.
# Assays:
# Type in all cases: in vivo, rat
# [1] = system: rats subjected to Li-pilo induced SE; assay: Timm staining, mossy fiber sprouting in hippocampus (Example 1)
# Method: At 2 months after the onset of spontaneous recurrent seizures, mossy fiber sprouting was examined on rats in the chronic period exposed to the test compound or DZP and in 3 saline-saline rats. Animals were deeply anaesthetized and perfused transcardially with saline followed by 100 ml of 1.15% (w/v) Na2S in 0.1 M phosphate buffer, and 100 ml of 4% (v/v) formaldehyde in 0.1 M phosphate buffer. Brains were removed from skull, post-fixed in 4% formaldehyde during 3-5 h and 40 μm sections were cut on a sliding vibratome and mounted on gelatin-coated slides.
# The following day, sections were developed in the dark in a 26° C. solution of 50% (w/v) arabic gum (160 ml), sodium citrate buffer (30 ml), 5.7% (w/v) hydroquinone (80 ml) and 10% (w/v) silver nitrate (2.5 ml) during 40-45 min. The sections were then rinsed with tap water at 40° C. during at least 45 min, rinsed rapidly with distilled water and allowed to dry. They were dehydrated in ethanol and coverslipped.
# Mossy fiber sprouting was evaluated according to criteria previously described in dorsal hippocampus (Cavazos et al., 1991, J Neurosci 11:2795-2803), which are follows: O— no granules between the tips and crest of the DG; 1—sparse granules in the supragranular region in a patchy distribution between the tips and crest of DG; 2—more numerous granules in a continuous distribution between the tips and crest of DG; 3—prominent granules in a continuous pattern between tips and crest, with occasional patches of confluent granules between tips and crest; 4—prominent granules that form a confluent dense laminar band between tips and crest and 5—confluent dense laminar band of granules that extends into the inner molecular layer.
# [2] = system: rats subjected to li-pilo SE; assay: Mortality over the first 48 h after lithium-pilocarpine SE (Example 2)
# Method: Adult male Sprague-Dawley rats provided by Janvier Breeding Center (Le Genest-St-Isle, France) were housed under controlled, uncrowded standard conditions at 20-22° C. (light/dark cycle, 7.00 a.m.-7.00 p.m. lights on), with food and water available ad libitum. All animal experimentation was performed in accordance with the rules of the European Communities Council Directive of Nov. 24, 1986 (86/609/EEC), and the French Department of Agriculture (License No 67-97).
# (§1) All rats received lithium chloride (3 meq/kg, i.p., Sigma, St Louis, Mo., U.S.A.) and about 20 h later, all animals received also methylscopolamine bromide (1 mg/kg, s.c., Sigma) that was administered to limit the peripheral effects of the convulsant. SE was induced by injecting pilocarpine hydrochloride (25 mg/kg, s.c., Sigma) 30 min after methylscopolamine. The effects of increasing doses of TC (RWJ) were studied in 5 groups of rats. […] The control group received vehicle instead of pilocarpine and TC. The rats surviving SE were then injected about 10 h after the first TC injection with a second i.p. injection of 1.25 mg/kg DZP for the DZP group or of the same dose of TC as in the morning and were maintained under a twice daily TC treatment (s.c.) for 6 additional days while DZP rats received a vehicle injection.
# A total number of 143 Sprague-Dawley rats weighing 250-330 g were subjected to lithium-pilocarpine (Li-pilo)-induced SE. […] The behavioral characteristics of SE were identical in both li-pilo-DZP and li-pilo-TC groups. Within 5 min after pilocarpine injection, rats developed diarrhea, piloerection and other signs of cholinergic stimulation. […] Recurrent seizures started around 15-20 min after pilocarpine administration. These seizures which associated episodes of head and bilateral forelimb myoclonus with rearing and falling progressed to SE at about 35-40 min after pilocarpine, as previously described (Turski et al., 1989; Dube et al., 2001; Andre et al., 2003). The control group not subjected to SE and receiving lithium and saline was composed of 20 rats.
# [3] = system: rats subjected to li-pilo SE; assay: Latency to and frequency of spontaneous seizures by video recording, lithium-pilocarpine model (Example 2)
# Method: as §1
# The effects of DZP and the 4 doses of TC on epileptogenesis were investigated by daily video recording of the animals for 10 h per day. Video recording was performed for 4 weeks during which the occurrence of the first seizure was noted as well as the total number of seizures over the whole period. Animals were then taken off the video recording system and kept for 4 additional weeks in our animal facilities before they were sacrificed after a total period of 8 weeks of epilepsy.
# For neuronal damage and epileptogenesis, statistical analysis between groups was performed by means of a one-way analysis of variance followed by a post-hoc Dunnett or Fisher test using the Statistica software.
smiles,measurement,setting,value
"CN1C(=O)CN=C(c2ccccc2)c2cc(Cl)ccc21 [DZP, diazepam, reference compound]","mean Timm score, upper blade of the dentate gyrus","[1]; pilo-DZP, n=9, score scale 0-5",2.8±0.8
same,degree of mortality over the first 48 h after SE,"[2]; DZP 2.5 mg/kg i.m., group devoted to cell counting at 14 days, 4/11",36%
same,degree of mortality over the first 48 h after SE,"[2]; DZP 2.5 mg/kg i.m., group devoted to latency to SRS and late cell counting, 1/14",7%
same,frequency of spontaneous seizures over four weeks of recording,[3]; DZP and TC30 groups,tendency to be higher
same,Latency to the first spontaneous seizure,"[3]; DZP, 14 animals",15.5 ± 2.3 days and 15.5 ± 2.34 days
NC(=O)OC[C@@H](O)c1ccccc1Cl [Formula 7],"mean Timm score, upper blade of the dentate gyrus","[1]; pilo-TC10, n=7, p=0.032 vs pilo-DZP",1.5±0.6
same,"mean Timm score, upper blade of the dentate gyrus","[1]; pilo-TC30, n=10",2.6±1.0
same,"mean Timm score, upper blade of the dentate gyrus","[1]; pilo-TC60 subgroup with early SRS occurrence, n=6",1.8±0.6
same,"mean Timm score, upper blade of the dentate gyrus","[1]; pilo-TC60 subgroup with late occurrence or absence of SRS, n=5, p=0.016 vs pilo-DZP",1.2±0.6
same,"mean Timm score, upper blade of the dentate gyrus","[1]; whole group of pilo-TC60 rats, n=11",1.5±0.7
same,degree of mortality over the first 48 h after SE,"[2]; TC30 (30 mg/kg i.p.), group devoted to cell counting at 14 days, 4/12",33%
same,degree of mortality over the first 48 h after SE,"[2]; TC30, group devoted to latency to SRS and late cell counting, 3/11",27%
same,degree of mortality over the first 48 h after SE,"[2]; TC60 (60 mg/kg i.p.), group devoted to cell counting at 14 days, 1/12",8%
same,degree of mortality over the first 48 h after SE,"[2]; TC60, group devoted to latency to SRS and late cell counting, 0/10",0%
same,degree of mortality over the first 48 h after SE,"[2]; TC90 (90 mg/kg i.p.), group devoted to cell counting at 14 days, 0/10",0%
same,degree of mortality over the first 48 h after SE,"[2]; TC90, group devoted to latency to SRS and late cell counting, 0/11",0%
same,degree of mortality over the first 48 h after SE,"[2]; TC120 (120 mg/kg i.p.), group devoted to cell counting at 14 days, 4/12",33%
same,degree of mortality over the first 48 h after SE,"[2]; TC120, group devoted to latency to SRS and late cell counting, 0/9",0%
same,frequency of spontaneous seizures over four weeks of recording,[3]; DZP and TC30 groups,tendency to be higher
same,rats with short latencies to seizures (shorter than 40 days after SE),"[3]; TC 90 mg/kg, 4/11",36%
same,rats with short latencies to seizures (shorter than 40 days after SE),"[3]; TC 120 mg/kg, 1/9",11%
same,latency to epilepsy of the long latency subgroup relative to the short latency,"[3]; TC 60, 90 and 120 mg/kg, subgroup of 2-4 animals per group",4-6 times
same,frequency of spontaneous seizures over four weeks of recording,"[3]; TC60, 90 and 120 groups, significant for total or mean number of seizures over the four weeks",lower
same,rats with short latencies to seizures (shorter than 40 days after SE),"[3]; TC at 30 mg/kg (so in the source), 7/10",70%
same,percentage of non-epileptic rats (no seizure over 150 days post-SE),[3]; at both of the two highest doses of TC (90 and 120 mg/kg),45%
same,Latency to the first spontaneous seizure,"[3]; pilo-TC30 (30 mg/kg), 8 animals, listed as TC",11.6 ± 2.5 days
same,Latency to the first spontaneous seizure,"[3]; pilo-TC60 (60 mg/kg), Long latency subgroup (n = 3)",76.7 ± 15.6 °° days
same,Latency to the first spontaneous seizure,"[3]; pilo-TC60 (60 mg/kg), Short latency subgroup (n = 7)",17.4 ± 5.4 days
same,Latency to the first spontaneous seizure,"[3]; pilo-TC90 (90 mg/kg), Long latency subgroup (n = 2)",52.0 ± 1.0 ° days
same,Latency to the first spontaneous seizure,"[3]; pilo-TC90 (90 mg/kg), Short latency subgroup (n = 4)",14.8 ± 5.7 days
same,Latency to the first spontaneous seizure,"[3]; pilo-TC120 (120 mg/kg), Long latency subgroup (n = 4)",84.5 ± 16.7 °° days
same,Latency to the first spontaneous seizure,"[3]; pilo-TC120 (120 mg/kg), Non epileptic subgroup (n = 4), no seizure over 150 days post-SE",150** °° days
same,Latency to the first spontaneous seizure,"[3]; pilo-TC120 (120 mg/kg), Short latency subgroup (n = 1)",13.0 days
